# Experiments:
# [1] = test system: T1, Receptor-type tyrosine-protein kinase FLT3 (Homo sapiens), P36888 [K663Q]; experiment: (§1) Selectivity interaction (KinomeScan (DiscoverX)) EUB0001079a FLT3; settings: at 1 µM
# T1 sequence (whole entry): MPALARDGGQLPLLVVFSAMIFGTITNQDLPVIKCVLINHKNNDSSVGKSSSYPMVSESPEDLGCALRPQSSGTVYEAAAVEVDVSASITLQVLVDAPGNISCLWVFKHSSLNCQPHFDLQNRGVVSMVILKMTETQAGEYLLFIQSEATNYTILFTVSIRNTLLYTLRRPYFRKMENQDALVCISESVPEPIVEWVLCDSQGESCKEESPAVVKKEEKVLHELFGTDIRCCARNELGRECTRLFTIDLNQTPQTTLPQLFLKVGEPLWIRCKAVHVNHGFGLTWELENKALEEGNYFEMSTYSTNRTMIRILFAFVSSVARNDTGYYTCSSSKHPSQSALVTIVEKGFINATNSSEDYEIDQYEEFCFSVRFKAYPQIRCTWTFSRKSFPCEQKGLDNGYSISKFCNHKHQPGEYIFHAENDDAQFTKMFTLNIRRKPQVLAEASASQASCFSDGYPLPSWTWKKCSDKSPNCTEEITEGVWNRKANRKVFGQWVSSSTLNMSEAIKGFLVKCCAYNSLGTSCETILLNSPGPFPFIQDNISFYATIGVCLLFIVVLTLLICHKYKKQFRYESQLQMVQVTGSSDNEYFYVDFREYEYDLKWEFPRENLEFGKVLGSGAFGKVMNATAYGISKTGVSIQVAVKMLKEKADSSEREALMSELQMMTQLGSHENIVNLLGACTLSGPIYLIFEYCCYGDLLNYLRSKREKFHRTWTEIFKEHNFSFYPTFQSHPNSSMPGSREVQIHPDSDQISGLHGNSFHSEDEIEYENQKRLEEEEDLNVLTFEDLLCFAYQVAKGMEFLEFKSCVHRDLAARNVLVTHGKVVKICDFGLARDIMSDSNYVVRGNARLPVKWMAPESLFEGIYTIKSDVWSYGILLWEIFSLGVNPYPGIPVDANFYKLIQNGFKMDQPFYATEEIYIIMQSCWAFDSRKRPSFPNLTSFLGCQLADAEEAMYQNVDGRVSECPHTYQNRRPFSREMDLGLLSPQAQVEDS
# [2] = test system: Receptor-type tyrosine-protein kinase FLT3 (Homo sapiens), P36888 [UNDEFINED MUTATION]; experiment: as §1; settings: at 1 µM
# [3] = biological target: T2, Alpha-2A adrenergic receptor (Homo sapiens) (UniProt P08913); experiment: Selectivity interaction (GPCR panel (PDSP screen)) EUB0001079a ADRA2A; settings: at 10 µM
# T2 sequence (whole entry): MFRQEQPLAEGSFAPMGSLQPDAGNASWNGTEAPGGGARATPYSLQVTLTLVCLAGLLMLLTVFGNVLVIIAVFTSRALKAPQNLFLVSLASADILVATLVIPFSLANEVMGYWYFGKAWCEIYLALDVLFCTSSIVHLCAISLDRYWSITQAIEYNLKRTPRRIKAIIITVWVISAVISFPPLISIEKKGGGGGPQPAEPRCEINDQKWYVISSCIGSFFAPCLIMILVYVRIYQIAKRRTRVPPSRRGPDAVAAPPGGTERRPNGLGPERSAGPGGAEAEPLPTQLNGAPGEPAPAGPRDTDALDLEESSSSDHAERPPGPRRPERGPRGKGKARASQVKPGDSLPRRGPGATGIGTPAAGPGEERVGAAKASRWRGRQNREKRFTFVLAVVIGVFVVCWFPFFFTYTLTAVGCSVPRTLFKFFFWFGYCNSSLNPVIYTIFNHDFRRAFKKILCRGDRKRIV
# [4] = biological target: T3, Mitogen-activated protein kinase kinase kinase kinase 2 (Homo sapiens) (UniProt Q12851); experiment: Selectivity interaction (KinomeScan (DiscoverX)) EUB0000595a MAP4K2; settings: at 10 µM
# T3 sequence (whole entry): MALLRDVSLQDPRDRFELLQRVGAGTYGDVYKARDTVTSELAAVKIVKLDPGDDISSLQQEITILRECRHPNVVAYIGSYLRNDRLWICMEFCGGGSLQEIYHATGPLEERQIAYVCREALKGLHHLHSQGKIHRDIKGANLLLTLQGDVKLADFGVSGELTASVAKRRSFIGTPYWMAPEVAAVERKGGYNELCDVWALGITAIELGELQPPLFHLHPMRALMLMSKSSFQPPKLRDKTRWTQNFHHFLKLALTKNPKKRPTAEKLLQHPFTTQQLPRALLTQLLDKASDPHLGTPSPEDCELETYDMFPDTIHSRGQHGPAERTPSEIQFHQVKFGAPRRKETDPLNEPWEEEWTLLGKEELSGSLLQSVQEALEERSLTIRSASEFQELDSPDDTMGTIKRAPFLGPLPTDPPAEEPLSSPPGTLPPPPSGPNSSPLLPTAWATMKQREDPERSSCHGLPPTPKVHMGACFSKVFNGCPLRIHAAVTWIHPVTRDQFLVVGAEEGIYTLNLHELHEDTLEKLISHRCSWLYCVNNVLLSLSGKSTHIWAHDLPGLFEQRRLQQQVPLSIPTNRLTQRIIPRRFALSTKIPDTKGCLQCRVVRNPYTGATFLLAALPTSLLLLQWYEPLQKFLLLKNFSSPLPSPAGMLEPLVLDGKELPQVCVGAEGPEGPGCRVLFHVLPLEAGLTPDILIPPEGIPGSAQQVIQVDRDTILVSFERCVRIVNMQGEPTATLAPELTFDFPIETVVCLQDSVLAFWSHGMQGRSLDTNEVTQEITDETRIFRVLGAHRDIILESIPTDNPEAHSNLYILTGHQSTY
# [5] = biological target: Tyrosine-protein kinase FRK (Homo sapiens) (UniProt P42685); experiment: Selectivity interaction (Ambit KINOMEscan and KiNATiv profiling in Jurkat cells) EUB0000090b FRK; format: cell-based; settings: at 1 µM
# Sequence of Tyrosine-protein kinase FRK (Homo sapiens) (P42685 whole entry): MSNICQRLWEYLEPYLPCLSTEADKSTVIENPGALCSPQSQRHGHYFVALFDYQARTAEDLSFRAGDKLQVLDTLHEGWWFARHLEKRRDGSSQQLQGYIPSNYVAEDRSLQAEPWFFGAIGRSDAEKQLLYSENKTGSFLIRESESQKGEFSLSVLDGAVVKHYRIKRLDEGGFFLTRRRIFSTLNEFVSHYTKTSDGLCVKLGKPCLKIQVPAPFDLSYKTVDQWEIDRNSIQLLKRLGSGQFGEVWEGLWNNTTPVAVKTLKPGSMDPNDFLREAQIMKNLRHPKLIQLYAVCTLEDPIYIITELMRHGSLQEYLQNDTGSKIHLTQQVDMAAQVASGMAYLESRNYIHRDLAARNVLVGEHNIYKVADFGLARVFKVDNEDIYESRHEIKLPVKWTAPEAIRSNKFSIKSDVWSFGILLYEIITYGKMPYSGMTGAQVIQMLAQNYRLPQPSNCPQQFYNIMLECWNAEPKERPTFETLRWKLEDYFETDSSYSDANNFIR
compound,measurement,setting,value
Nc1cnc(N2CCc3cc(S(=O)(=O)Nc4c(F)cc(Cl)cc4F)cc(N4CCCC4=O)c32)nc1 [TP-020n],% of control,[1],97%
same,% of control,[2],92%
same,% of inhibition,[3],-10.1%
COCC(=O)NC/C=C/c1ccc2ncnc(Nc3ccc(Oc4ccc(C)nc4)c(C)c3)c2c1 [CP-724714],% of control,[4],100%
CN(C)C/C=C/C(=O)Nc1ccc(C(=O)N2CCCC(Nc3ncc(Cl)c(-c4c[nH]c5ccccc45)n3)C2)cc1 (stereo not given),% of control,[5],89%
